Data: patent publication US8835353B2, “Germination acceleration” (Valent BioSciences Corporation, priority 2007, dated 2014)

Experiments:
[1] = test system: hybrid field corn (Hybrid 2652); assay: Petri plate study: seed treatment, coleoptile emergence at 10° C.; type: in vivo; conditions: 6BA 10 ppm, petri plates at 10° C.
Description: For all seed treatments, 1 ppm active ingredient refers to 1 microgram active ingredient per gram of seed. For these studies, GA3, GA4/7, 6BA, or CPPU were each dispensed into a 15 ml centrifuge tube, and 2.5 ml of de-ionized water was then added to each tube. The solution was mixed on a vortex mixer and 0.25 ml of this solution was then placed in another 50 ml. centrifuge tube along with 10 grams of sweet corn seed (cv. Silver Queen) or field corn (cv. Hybrid 2652) seed and rotated 360° on a Labquake Rotissarie for 10 minutes to ensure proper seed coverage. To simulate commercial seed treatments, the amount of solutions was just sufficient to wet the seeds. […] Petri plate studies: Each standard petri plate (100 mm×50 mm) contained 1 blue Anchor germination circle (3¼ inches in diameter) drenched with 7 ml of de-ionized water cooled to 10° C. Each treatment consisted of 4 petri plates of 10 seeds each. After plating, the petri plates were placed in a Nalgene plastic container cooled to 10° C. This in turn was incubated in a 10° C. growth chamber with a 16 hour light cycle for the duration of the study. Counts were made by visually examining each seed for radicle and coleoptile protrusion. Hybrid field corn seeds (cv. Hybrid 2652) were treated with solutions containing GA4/7 or 6BA or combinations of GA4/7 and 6BA, plated onto wetted paper in a petri plate, and held at 10° C.

[2] = test system: sweet corn (cv. Silver Queen); assay: Pouch study: seed treatment, coleoptile and radicle growth at 10° C.; type: in vivo; conditions: 6BA 10 ppm, pouches at 10° C.
Description: For all seed treatments, 1 ppm active ingredient refers to 1 microgram active ingredient per gram of seed. For these studies, GA3, GA4/7, 6BA, or CPPU were each dispensed into a 15 ml centrifuge tube, and 2.5 ml of de-ionized water was then added to each tube. The solution was mixed on a vortex mixer and 0.25 ml of this solution was then placed in another 50 ml. centrifuge tube along with 10 grams of sweet corn seed (cv. Silver Queen) or field corn (cv. Hybrid 2652) seed and rotated 360° on a Labquake Rotissarie for 10 minutes to ensure proper seed coverage. To simulate commercial seed treatments, the amount of solutions was just sufficient to wet the seeds. […] Pouch studies: A CYG germination pouch was drenched with 17 ml of 10° C. de-ionized water. Three treated seeds were placed in the trough of the germination paper, contained within the pouch. Pouches were placed in a Nalgene plastic container cooled to 10° C. The container was incubated in a 10° C. growth chamber with a 16 hour light cycle for the duration of the study. Seedling coleoptiles and radicles were measured by removing the seedling from the pouch and measuring with a ruler. […] The amount of applied is expressed as ppm or micrograms of compound per gram of seed. […]

[3] = test system: sweet corn (cv. Silver Queen); assay: Pro-Mix study: seed treatment, coleoptile emergence and length at 10° C.; type: in vivo; conditions: ProMix at 10° C.
Description: (§1) For all seed treatments, 1 ppm active ingredient refers to 1 microgram active ingredient per gram of seed. For these studies, GA3, GA4/7, 6BA, or CPPU were each dispensed into a 15 ml centrifuge tube, and 2.5 ml of de-ionized water was then added to each tube. The solution was mixed on a vortex mixer and 0.25 ml of this solution was then placed in another 50 ml. centrifuge tube along with 10 grams of sweet corn seed (cv. Silver Queen) or field corn (cv. Hybrid 2652) seed and rotated 360° on a Labquake Rotissarie for 10 minutes to ensure proper seed coverage. To simulate commercial seed treatments, the amount of solutions was just sufficient to wet the seeds. Seeds were dried overnight in weigh boats.
Pro-Mix studies: Pro Mix potting media was cooled to 10° C. and then placed in a 20 inch×10 inch flat to a depth of 5 cm. A trough of twenty seeds/treatment were planted at a depth of 2 cm. Four trays of twenty seeds each were planted per treatment. The trays were incubated in a growth chamber set at 10° C., 16 hour light cycle. Corn emergence counts were made daily.
Sweet corn (cv. Silver Queen) seeds were treated with solutions containing GA4/7, 6BA, or GA4/7 and 6BA, planted into ProMix soil, and held at 10° C. At 22 days after treatment, more seedlings from seeds treated with the combination treatment of GA4/7 and 6BA had emerged than seeds treated with 6BA or GA4/7 alone (Table 2).
Sweet corn (cv. Silver Queen) seeds were treated with solutions containing GA3, 6BA, or GA3 and 6BA, planted into ProMix soil, and held at 10° C.

[4] = test system: seedlings; assay: Preliminary studies: seedling quality and radicle growth after seed treatment; type: in vivo, corn; conditions: high rates of 6BA (>10 ppm)
[5] = test system: sweet corn (cv. Silver Queen); assay: Petri plate study: seed treatment, coleoptile emergence at 10° C.; type: in vivo; conditions: petri plates at 10° C.
Description: as §1
Petri plate studies: Each standard petri plate (100 mm×50 mm) contained 1 blue Anchor germination circle (3¼ inches in diameter) drenched with 7 ml of de-ionized water cooled to 10° C. Each treatment consisted of 4 petri plates of 10 seeds each. After plating, the petri plates were placed in a Nalgene plastic container cooled to 10° C. This in turn was incubated in a 10° C. growth chamber with a 16 hour light cycle for the duration of the study. Counts were made by visually examining each seed for radicle and coleoptile protrusion. […]

Which results are given for c1ccc(CNc2ncnc3nc[nH]c23)cc1 [6BA, N^6-phenylmethyl-1H-purin-6-amine]?
Percent coleoptile emergence at 12 days after treatment [1]: 32%; Coleoptile length (cm) at 22 days after treatment [2]: 2.17 cm; Radicle length (cm) at 22 days after treatment [2]: 2.78 cm; Percent coleoptile emergence at 21 days after treatment ([3]; 6BA 10 ppm): 3.7%; Percent coleoptile emergence at 22 days after treatment ([3]; 6BA 10 ppm, 22 days): 6.2%; Coleoptile length above ground (mm) at 32 days after treatment ([3]; 6BA 10 ppm, 32 days): 17.1 mm; Length of the emerged coleoptiles at 32 days after treatment, compared to the control ([3]; 6BA, 32 days): no significant effect compared to the control; Radicle growth [4]: reduced radicle growth; Seedling quality [4]: substantially reduced seedling quality

With O=C(Nc1ccccc1)Nc1ccnc(Cl)c1 [CPPU, 1-(2-chloro-4-pyridyl)-3-phenylurea] as the compound, how does the “Percent coleoptile emergence at 14 days after treatment” value ([5]; CPPU 1 ppm) read?
Its value is 0%.

What about the “Percent coleoptile emergence at 14 days after treatment” value ([5]; CPPU 10 ppm) of the same compound?
Its value is 4%.

C=C1C[C@]23C[C@@]1(O)CC[C@H]2[C@@]12C=C[C@H](O)[C@@](C)(C(=O)O1)[C@H]2[C@@H]3C(=O)O [GA3, (1α,2β,4aα,4bβ,10β)-2,4a,7-trihydroxy-1-methyl-8-methylenegibb-3-ene-1,10-dicarboxylic acid 1,4a-lactone] was tested. Which “Percent coleoptile emergence at 21 days after treatment” value ([3]; GA3 100 ppm) did it give?
The value was 1.2%.
